How the values were obtained:
CXCR4 [1] = target: T1, CXCR4 (Homo sapiens, UniProt P61073); test: Competition binding assay vs [^68Ga]Pentixafor in PC3-CXCR4 cells; details: for IC50: vs 100 nM [^68Ga]Pentixafor, PC3-CXCR4 cells, 60 min 37 °C; for Hill Slope, Competitive Binding Experiment: vs [^68Ga]Pentixafor, value ± SD
T1 construct: expressed in transfected cells; host or cells: PC3 (human prostate cancer) cells stably transduced with CXCR4
Method: (§1) PC3-CXCR4 cells were plated in 12-well plates at a density of 500,000 cells per well and incubated for 48 h at 37 °C/5% CO2. Prior to the binding assay the cells were incubated in fresh media and 370–555 kBq of [^68Ga]Pentixafor or [^18F]RPS-544 was added to each well. The corresponding concentration of [^68Ga]Pentixafor in each well was 100 nM, and the concentration of [^18F]RPS-544 was approximately 5 pM. Then non-radioactive ligands were added to give a final ligand concentration in the range 0.001–10,000 nM. A total of eight concentrations were studied, and each concentration was tested in triplicate. The cells were incubated for 60 min at 37 °C/5% CO2. The media was removed under suction, the cells were washed with cold PBS 1X and detached and transferred to tubes for counting in 1 M NaOH. The cells were counted in a Wizard^2 Gamma Counter (PerkinElmer, Waltham, MA, USA). Non-specific binding was subtracted, and the IC50 values were determined by assuming a simple competitive binding interaction and fitting the data to a sigmoidal Hill plot in Origin 9.0 (OriginLab, Northampton, MA, USA). Potencies are expressed as IC50 ± standard deviation (Supplemental Data, Figure S7).

CXCR4 [2] = target: T1, CXCR4; test: Saturation binding assay in PC3-CXCR4 cells; details: for Kd: saturation binding, PC3-CXCR4 cells; for Hill Slope, Saturation Binding Experiment: value ± SD
Method: To determine the dissociation constants, saturation binding assays were performed in the PC3-CXCR4 cells. The cells were plated as described above, and approximately 5 nM of the radioligand was added to each well. Then the corresponding non-radioactive ligand was added to give a final concentration in the range 0.001–10,000 nM. A total of eight concentrations were tested, and each concentration was tested in triplicate. The samples were washed and counted as described above. Non-specific binding was subtracted, and Kd values were determined by performing a nonlinear one site binding curve fit with equation y = (Bmax · x)/(Kd + x). Values are expressed as Kd ± standard deviation (Supplemental Data, Figure S8).

PC3-CXCR4 cells [3] = test: Cell-associated activity in PC3-CXCR4 cells; assay type: cell-based, human; details: 1 h
Method: Maximum cell-associated activity was calculated by subtracting the cell uptake of the radioactive ligand at the highest non-radioactive ligand concentration of 10 µM (which we considered to be non-specific uptake/binding) from the cell uptake at the lowest non-radioactive ligand concentration of 10^−5 µM.

PC3-CXCR4 cells [4] = test: Internalization in PC3-CXCR4 cells; assay type: cell-based, human; details: after 135 min incubation
Method: Internalization studies were performed for [^18F]RPS-534 and [^18F]RPS-547 in a time dependent manner. PC3-CXCR4 cells were plated as described above in 12-well plates and incubated for 48 h prior to the experiment. The media was exchanged and [^18F]RPS-534 or [^18F]RPS-547 (10^−5 μM; approximately 400 kBq) was added to each well. All experiments were performed in triplicate. […] Then the media was removed under suction at the corresponding temperature, and the cells washed with 1 mL PBS. Cell surface-bound activity was collected by two successive 5 min incubations of 0.5 mL of a 50 mM glycine buffer (pH = 2.8) performed at 4 °C or 37 °C. The cells were then washed with 1 mL ice-cold PBS and detached with 1 mL ice cold 1 M NaOH. Detached cells were collected and counted along with the washes. An aliquot of the administered radioactivity (10% IA) was also counted and used for quantification. The activity found in the NaOH fractions of the 4 °C plates was subtracted from the activities of the fractions at 37 °C to correct for non-specific binding. Internalized activity was expressed as the fraction of activity in the NaOH fraction relative to the total activity added.

[5] = Biodistribution in mice bearing bilateral PC3-WT/PC3-CXCR4 xenograft tumors; assay type: in vivo, BALB/c mice
Method: (§2) All animal studies were approved by the Institutional Animal Care and Use Committee of Weill Cornell Medicine (Protocol Number: 2015-0066) and were undertaken in accordance with the guidelines set forth by the USPHS Policy on Humane Care and Use of Laboratory Animals. Animals were housed under standard conditions in approved facilities with 12 h light/dark cycles. Food and water was provided ad libitum throughout the course of the studies. Hairless 6-to-8-week old male BALB/c inbred athymic nude mice (Jackson Laboratory, Bar Harbor, ME, USA) were inoculated bilaterally with 0.2 mL of a 1:1 mixture of 10^7 PC3-CXCR4 cells in PBS and Matrigel (Corning, Tewksbury, MA, USA) subcutaneously in the left shoulder and 0.2 mL of a 1:1 mixture of 10^7 PC3-WT cells in PBS and Matrigel subcutaneously in the right shoulder. Imaging and biodistribution studies were performed three weeks post-implantation, when tumors were approximately 100–300 mm^3.
(§3) For the biodistribution studies, tumor-bearing animals (n = 5/compound/time point) were injected intravenously with 50–100 μL of a 9% v/v EtOH/saline solution containing approximately 1.1 MBq of the radioligand. […] The mice were euthanized at 1 or 2 h p.i. and tissues including blood, heart, lungs, liver, small intestine, large intestine, stomach (with contents), spleen, pancreas, kidneys, muscle, bone, PC3-WT tumors, PC3-CXCR4 tumors, and tail were collected. All organs were weighed and placed in test tubes for counting in a Wizard^2 Gamma Counter (PerkinElmer, Waltham, MA, USA). For comparison, 1% injected activity standards were prepared and counted along with the tissue samples. The tails were counted to correct for any dose extravasation. Activity in each tissue was corrected for decay and for injected activity and expressed as percent injected dose per gram of tissue (%ID/g) ± standard error.

[6] = system: PC3-CXCR4 xenograft tumors; test: as above; assay type: in vivo, BALB/c mice
Method: as §2, §3

CXCR4 [7] = target: T1, CXCR4; test: Competition binding assay vs [^18F]RPS-544 in PC3-CXCR4 cells; details: approx. 5 pM [^18F]RPS-544; p = 0.85
Method: as §1

[8] = 1 h p.i., blocked by co-injection of 5 mg/kg AMD-3100

T1 sequence (P61073 whole entry): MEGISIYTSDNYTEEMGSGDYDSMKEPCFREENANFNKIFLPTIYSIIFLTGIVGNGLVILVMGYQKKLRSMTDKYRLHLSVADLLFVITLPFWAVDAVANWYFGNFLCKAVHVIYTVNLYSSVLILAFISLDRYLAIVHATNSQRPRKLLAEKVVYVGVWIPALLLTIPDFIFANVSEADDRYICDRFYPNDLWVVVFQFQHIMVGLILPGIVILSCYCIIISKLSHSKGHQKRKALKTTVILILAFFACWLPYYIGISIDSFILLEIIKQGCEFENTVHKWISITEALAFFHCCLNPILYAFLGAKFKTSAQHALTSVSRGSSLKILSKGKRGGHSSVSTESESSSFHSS

FCCn1cc(-c2cc(CN3CCCNCCNCCCNCC3)ccc2CNCc2ccccn2)nn1 [RPS-534]
decrease in affinity relative to RPS-544 (CXCR4 [1]): 30 fold | IC50 (CXCR4 [1]): 218 ± 38 nM | Hill Slope, Competitive Binding Experiment (CXCR4 [1]): 1.15 ± 0.34 | Kd (CXCR4 [2]): 176 ± 30 nM | Hill Slope, Saturation Binding Experiment (CXCR4 [2]): 1.05 ± 0.15 | Cell-Associated Activity (PC3-CXCR4 cells [3]): 18.5 ± 3.7 %IA | internalized activity (PC3-CXCR4 cells [4]): approximately 2 %IA | internalized share of total cell-associated activity (PC3-CXCR4 cells [4]): approximately 7% | Blood tissue activity ([5]; 1 h p.i.): 0.30±0.08 %ID/g | Blood tissue activity [5, 8]: 0.26±0.15 %ID/g | Blood tissue activity ([5]; 2 h p.i.): 0.08±0.02 %ID/g | Bone tissue activity ([6]; 1 h p.i.): 1.44±0.04 %ID/g | Heart tissue activity ([6]; 1 h p.i.): 0.25±0.01 %ID/g | Kidneys tissue activity ([6]; 1 h p.i.): 7.43±0.96 %ID/g | Large Intestine tissue activity ([6]; 1 h p.i.): 0.29±0.06 %ID/g | Liver tissue activity ([6]; 1 h p.i.): 19.14 ± 0.42 %ID/g | Lungs tissue activity ([6]; 1 h p.i.): 1.01±0.09 %ID/g | Muscle tissue activity ([6]; 1 h p.i.): 0.19±0.03 %ID/g | PC3-CXCR4 Tumor Uptake ([6]; 1 h p.i.): 7.20 ± 0.30 %ID/g | PC3-CXCR4 Tumor-to-Tissue Ratio Blood ([6]; 1 h p.i.): 27.5 ± 0.4 | PC3-CXCR4 Tumor-to-Tissue Ratio Bone ([6]; 1 h p.i.): 5.7 ± 0.4 | PC3-CXCR4 Tumor-to-Tissue Ratio Kidneys ([6]; 1 h p.i.): 1.1 ± 0.4 | PC3-CXCR4 Tumor-to-Tissue Ratio Liver ([6]; 1 h p.i.): 0.4 ± 0.2 | PC3-CXCR4 Tumor-to-Tissue Ratio Lungs ([6]; 1 h p.i.): 8.0 ± 0.4 | PC3-CXCR4 Tumor-to-Tissue Ratio Muscle ([6]; 1 h p.i.): 42.4 ± 0.1 | PC3-CXCR4 Tumor-to-Tissue Ratio PC3-WT ([6]; 1 h p.i.): 2.5 ± 0.4 | PC3-WT tumor activity ([6]; 1 h p.i.): 2.85±0.22 %ID/g | Pancreas tissue activity ([6]; 1 h p.i.): 0.28±0.02 %ID/g | Small Intestine tissue activity ([6]; 1 h p.i.): 3.67±0.44 %ID/g | Spleen tissue activity ([6]; 1 h p.i.): 2.49±0.04 %ID/g | Stomach tissue activity ([6]; 1 h p.i.): 0.16±0.03 %ID/g | Bone tissue activity [6, 8]: 0.44±0.15 %ID/g | Heart tissue activity [6, 8]: 0.13±0.04 %ID/g | Kidneys tissue activity [6, 8]: 5.10±0.33 %ID/g | Large Intestine tissue activity [6, 8]: 0.40±0.58 %ID/g | Liver tissue activity [6, 8]: 12.01 ± 4.67 %ID/g | Lungs tissue activity [6, 8]: 0.48±0.08 %ID/g | Muscle tissue activity [6, 8]: 0.17±0.16 %ID/g | PC3-CXCR4 tumor activity [6, 8]: 2.01±0.93 %ID/g | PC3-WT tumor activity [6, 8]: 1.21±0.47 %ID/g | Pancreas tissue activity [6, 8]: 0.32±0.01 %ID/g | Small Intestine tissue activity [6, 8]: 5.35±1.74 %ID/g | Spleen tissue activity [6, 8]: 0.12±0.03 %ID/g | Stomach tissue activity [6, 8]: 0.14±0.11 %ID/g | Bone tissue activity ([6]; 2 h p.i.): 1.26±0.06 %ID/g | Heart tissue activity ([6]; 2 h p.i.): 0.14±0.02 %ID/g | Kidneys tissue activity ([6]; 2 h p.i.): 5.05±0.80 %ID/g | Large Intestine tissue activity ([6]; 2 h p.i.): 4.60±0.57 %ID/g | Liver tissue activity ([6]; 2 h p.i.): 18.60±1.74 %ID/g | Lungs tissue activity ([6]; 2 h p.i.): 0.59±0.03 %ID/g | Muscle tissue activity ([6]; 2 h p.i.): 0.11±0.03 %ID/g | PC3-CXCR4 Tumor-to-Tissue Ratio Blood ([6]; 2 h p.i.): 51.1 ± 0.2 | PC3-CXCR4 Tumor-to-Tissue Ratio Bone ([6]; 2 h p.i.): 3.5 ± 0.2 | PC3-CXCR4 Tumor-to-Tissue Ratio Kidneys ([6]; 2 h p.i.): 0.9 ± 0.2 | PC3-CXCR4 Tumor-to-Tissue Ratio Liver ([6]; 2 h p.i.): 0.2 ± 0.1 | PC3-CXCR4 Tumor-to-Tissue Ratio Lungs ([6]; 2 h p.i.): 7.1 ± 0.2 | PC3-CXCR4 Tumor-to-Tissue Ratio Muscle ([6]; 2 h p.i.): 38.8 ± 0.2 | PC3-CXCR4 Tumor-to-Tissue Ratio PC3-WT ([6]; 2 h p.i.): 2.5 ± 0.2 | PC3-CXCR4 tumor activity ([6]; 2 h p.i.): 4.31±0.47 %ID/g | PC3-WT tumor activity ([6]; 2 h p.i.): 1.66±0.08 %ID/g | Pancreas tissue activity ([6]; 2 h p.i.): 0.18±0.06 %ID/g | Small Intestine tissue activity ([6]; 2 h p.i.): 1.53±0.25 %ID/g | Spleen tissue activity ([6]; 2 h p.i.): 1.90±0.23 %ID/g | Stomach tissue activity ([6]; 2 h p.i.): 0.12±0.05 %ID/g | reduction of tumor activity by blocking ([6]; blocking dose 5 mg/kg AMD-3100): approximately 70% | PC3-CXCR4 tumor uptake relative to [^18F]RPS-544 ([6]; mouse, in vivo): 2 fold | tumor-to-heart ratio ([6]; time not restated, follows the 1 h p.i. tumor-to-blood ratio): 28.8 ± 0.3 | IC50 vs [^18F]RPS-544 compared with IC50 vs [^68Ga]Pentixafor (CXCR4 [7]): not significantly different

FCCn1cc(-c2cc(CNCc3ccccn3)ccc2CN2CCCNCCNCCCNCC2)nn1 [RPS-533]
IC50 (CXCR4 [1]): 356 ± 100 nM | Hill Slope, Competitive Binding Experiment (CXCR4 [1]): 1.07 ± 0.36 | Kd (CXCR4 [2]): 366 ± 70 nM | Hill Slope, Saturation Binding Experiment (CXCR4 [2]): 1.12 ± 0.05 | Cell-Associated Activity (PC3-CXCR4 cells [3]): 2.1 ± 0.4 %IA | Blood tissue activity ([5]; 1 h p.i.): 0.30±0.06 %ID/g | Bone tissue activity ([6]; 1 h p.i.): 1.22±0.03 %ID/g | Heart tissue activity ([6]; 1 h p.i.): 0.57±0.05 %ID/g | Kidneys tissue activity ([6]; 1 h p.i.): 12.17 ± 0.78 %ID/g | Large Intestine tissue activity ([6]; 1 h p.i.): 0.23±0.02 %ID/g | Liver tissue activity ([6]; 1 h p.i.): 3.69±0.21 %ID/g | Lungs tissue activity ([6]; 1 h p.i.): 0.60±0.08 %ID/g | Muscle tissue activity ([6]; 1 h p.i.): 0.67±0.08 %ID/g | PC3-CXCR4 Tumor Uptake ([6]; 1 h p.i.): 1.93 ± 0.18 %ID/g | PC3-CXCR4 Tumor-to-Tissue Ratio Blood ([6]; 1 h p.i.): 6.9 ± 0.2 | PC3-CXCR4 Tumor-to-Tissue Ratio Bone ([6]; 1 h p.i.): 1.4 ± 0.7 | PC3-CXCR4 Tumor-to-Tissue Ratio Kidneys ([6]; 1 h p.i.): 0.2 ± 0.1 | PC3-CXCR4 Tumor-to-Tissue Ratio Liver ([6]; 1 h p.i.): 0.5 ± 0.1 | PC3-CXCR4 Tumor-to-Tissue Ratio Lungs ([6]; 1 h p.i.): 3.3 ± 0.4 | PC3-CXCR4 Tumor-to-Tissue Ratio Muscle ([6]; 1 h p.i.): 2.2 ± 0.3 | PC3-CXCR4 Tumor-to-Tissue Ratio PC3-WT ([6]; 1 h p.i.): 2.0 ± 0.4 | PC3-WT tumor activity ([6]; 1 h p.i.): 0.91±0.19 %ID/g | Pancreas tissue activity ([6]; 1 h p.i.): 0.44±0.02 %ID/g | Small Intestine tissue activity ([6]; 1 h p.i.): 2.19±0.05 %ID/g | Spleen tissue activity ([6]; 1 h p.i.): 0.52±0.02 %ID/g | Stomach tissue activity ([6]; 1 h p.i.): 0.17±0.04 %ID/g | IC50 vs [^18F]RPS-544 compared with IC50 vs [^68Ga]Pentixafor (CXCR4 [7]): not significantly different

— publication PMC6514812, “[^18F]Fluoroethyltriazolyl Monocyclam Derivatives as Imaging Probes for the Chemokine Receptor CXCR4” (Molecules, 2019)
